Like-named read-outs stand apart in the source and are kept apart here.
Assays:
[1] = molecular target: p110γ (Homo sapiens (Human), UniProt P48736); test: PI 3-Kinase (human) HTRF assay, p110γ; type: biochemical
[2] = molecular target: p110α/p85α (Homo sapiens (Human), UniProt P42336); test: PI 3-Kinase (human) HTRF assay, p110α/p85α; type: biochemical
[3] = molecular target: p110δ/p85α (Homo sapiens (Human), UniProt O00329); test: PI 3-Kinase (human) HTRF assay, p110δ/p85α; type: biochemical
[4] = molecular target: recombinant mTOR (Homo sapiens (Human), UniProt P42345); test: mTOR inhibition assay (radiometric or LanthaScreen TR-FRET); type: biochemical; conditions: in vitro; read-out: MTORC IC50
[5] = molecular target: p110β/p85α (Homo sapiens (Human), UniProt P42338); test: PI 3-Kinase (human) HTRF assay, p110β/p85α; type: biochemical
[6] = system: tumor cells with a PI3Kα mutation (e.g., MDA-MB-361 and T47D); test: Proliferation of tumor cells with PI3Kα mutation; type: cell-based; conditions: Homo sapiens
[7] = in vitro, read-out: PI3K γ IC50
[8] = in vitro, read-out: PI3K α IC50
[9] = in vitro, read-out: PI3K δ IC50
[10] = in vitro, read-out: PI3K β IC50
[11] = T47D cells, read-out: T47D proliferation IC50
[12] = PC3, read-out: PC3 proliferation In Vitro IC50

Chain of p110β/p85α (P42338 whole entry): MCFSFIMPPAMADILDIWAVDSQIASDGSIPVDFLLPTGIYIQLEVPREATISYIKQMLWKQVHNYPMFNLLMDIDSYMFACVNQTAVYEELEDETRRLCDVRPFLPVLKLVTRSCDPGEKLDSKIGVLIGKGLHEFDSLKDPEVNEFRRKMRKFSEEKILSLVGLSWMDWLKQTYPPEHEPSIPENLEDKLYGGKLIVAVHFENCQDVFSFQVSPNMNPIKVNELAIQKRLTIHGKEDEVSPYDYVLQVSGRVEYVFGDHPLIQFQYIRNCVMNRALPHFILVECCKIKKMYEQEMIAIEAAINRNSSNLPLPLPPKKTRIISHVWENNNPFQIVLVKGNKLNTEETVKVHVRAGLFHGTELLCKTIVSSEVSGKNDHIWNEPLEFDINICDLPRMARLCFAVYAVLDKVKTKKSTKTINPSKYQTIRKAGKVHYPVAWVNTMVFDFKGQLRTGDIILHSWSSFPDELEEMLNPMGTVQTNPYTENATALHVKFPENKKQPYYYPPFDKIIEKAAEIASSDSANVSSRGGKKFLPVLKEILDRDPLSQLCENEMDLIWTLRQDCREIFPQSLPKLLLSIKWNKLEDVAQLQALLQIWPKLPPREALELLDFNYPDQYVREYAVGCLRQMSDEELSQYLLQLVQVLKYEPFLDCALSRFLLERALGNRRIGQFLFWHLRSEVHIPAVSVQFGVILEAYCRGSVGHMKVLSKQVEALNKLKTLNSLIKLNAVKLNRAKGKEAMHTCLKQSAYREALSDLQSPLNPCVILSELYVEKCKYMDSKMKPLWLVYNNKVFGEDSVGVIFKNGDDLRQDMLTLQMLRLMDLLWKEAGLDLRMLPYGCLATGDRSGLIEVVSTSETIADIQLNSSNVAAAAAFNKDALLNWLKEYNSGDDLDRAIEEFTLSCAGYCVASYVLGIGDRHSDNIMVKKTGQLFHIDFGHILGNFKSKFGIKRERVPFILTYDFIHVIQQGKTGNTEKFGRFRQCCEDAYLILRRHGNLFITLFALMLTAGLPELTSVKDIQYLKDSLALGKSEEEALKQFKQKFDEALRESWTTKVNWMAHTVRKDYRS
Chain of p110β/p85α (P27986 whole entry partner): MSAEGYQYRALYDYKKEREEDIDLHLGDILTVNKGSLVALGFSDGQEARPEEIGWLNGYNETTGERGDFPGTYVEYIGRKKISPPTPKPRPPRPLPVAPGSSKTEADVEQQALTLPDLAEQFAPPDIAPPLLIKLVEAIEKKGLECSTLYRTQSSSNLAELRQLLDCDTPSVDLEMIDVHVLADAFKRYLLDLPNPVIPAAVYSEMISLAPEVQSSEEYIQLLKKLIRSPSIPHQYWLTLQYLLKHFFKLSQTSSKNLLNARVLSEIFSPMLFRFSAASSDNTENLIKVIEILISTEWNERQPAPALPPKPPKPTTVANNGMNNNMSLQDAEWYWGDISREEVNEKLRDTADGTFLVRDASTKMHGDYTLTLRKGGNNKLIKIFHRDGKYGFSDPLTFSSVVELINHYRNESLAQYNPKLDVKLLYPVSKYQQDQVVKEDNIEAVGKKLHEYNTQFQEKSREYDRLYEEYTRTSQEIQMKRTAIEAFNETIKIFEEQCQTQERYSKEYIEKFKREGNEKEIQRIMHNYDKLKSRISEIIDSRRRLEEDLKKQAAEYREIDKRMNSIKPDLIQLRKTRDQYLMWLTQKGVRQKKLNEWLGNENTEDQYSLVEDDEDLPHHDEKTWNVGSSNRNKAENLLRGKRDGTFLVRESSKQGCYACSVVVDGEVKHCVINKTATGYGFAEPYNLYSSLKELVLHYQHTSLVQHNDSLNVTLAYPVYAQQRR
Chain of p110δ/p85α (O00329 whole entry): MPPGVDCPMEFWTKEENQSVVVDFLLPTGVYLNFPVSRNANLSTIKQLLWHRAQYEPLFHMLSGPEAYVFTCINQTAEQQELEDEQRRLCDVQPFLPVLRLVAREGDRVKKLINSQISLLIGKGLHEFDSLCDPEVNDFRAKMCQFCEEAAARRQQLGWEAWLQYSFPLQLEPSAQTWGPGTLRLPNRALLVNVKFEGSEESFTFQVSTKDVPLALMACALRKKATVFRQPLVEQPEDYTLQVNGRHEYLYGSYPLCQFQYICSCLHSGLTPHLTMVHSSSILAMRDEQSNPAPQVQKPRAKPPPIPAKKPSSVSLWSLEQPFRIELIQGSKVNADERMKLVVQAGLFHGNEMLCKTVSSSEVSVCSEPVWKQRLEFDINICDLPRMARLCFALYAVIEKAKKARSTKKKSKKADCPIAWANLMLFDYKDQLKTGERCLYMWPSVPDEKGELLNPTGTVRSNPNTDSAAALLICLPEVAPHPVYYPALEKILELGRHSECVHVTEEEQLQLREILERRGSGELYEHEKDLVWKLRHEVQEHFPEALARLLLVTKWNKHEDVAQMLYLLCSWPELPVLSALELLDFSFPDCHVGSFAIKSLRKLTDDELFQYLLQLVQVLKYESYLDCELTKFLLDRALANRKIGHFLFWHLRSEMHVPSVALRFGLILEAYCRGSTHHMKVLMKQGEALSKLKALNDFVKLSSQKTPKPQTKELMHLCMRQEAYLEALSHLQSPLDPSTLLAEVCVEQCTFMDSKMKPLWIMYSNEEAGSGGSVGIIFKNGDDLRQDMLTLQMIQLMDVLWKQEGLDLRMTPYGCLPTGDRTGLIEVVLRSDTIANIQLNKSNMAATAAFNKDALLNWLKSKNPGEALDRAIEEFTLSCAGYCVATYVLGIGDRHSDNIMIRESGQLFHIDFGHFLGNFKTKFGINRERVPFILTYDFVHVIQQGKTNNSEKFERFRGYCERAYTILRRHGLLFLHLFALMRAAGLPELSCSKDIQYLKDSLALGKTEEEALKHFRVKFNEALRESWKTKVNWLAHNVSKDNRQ
Chain of p110δ/p85α (P27986 whole entry partner): as the sequence (P27986 whole entry partner) above
Chain of p110γ (P48736 whole entry): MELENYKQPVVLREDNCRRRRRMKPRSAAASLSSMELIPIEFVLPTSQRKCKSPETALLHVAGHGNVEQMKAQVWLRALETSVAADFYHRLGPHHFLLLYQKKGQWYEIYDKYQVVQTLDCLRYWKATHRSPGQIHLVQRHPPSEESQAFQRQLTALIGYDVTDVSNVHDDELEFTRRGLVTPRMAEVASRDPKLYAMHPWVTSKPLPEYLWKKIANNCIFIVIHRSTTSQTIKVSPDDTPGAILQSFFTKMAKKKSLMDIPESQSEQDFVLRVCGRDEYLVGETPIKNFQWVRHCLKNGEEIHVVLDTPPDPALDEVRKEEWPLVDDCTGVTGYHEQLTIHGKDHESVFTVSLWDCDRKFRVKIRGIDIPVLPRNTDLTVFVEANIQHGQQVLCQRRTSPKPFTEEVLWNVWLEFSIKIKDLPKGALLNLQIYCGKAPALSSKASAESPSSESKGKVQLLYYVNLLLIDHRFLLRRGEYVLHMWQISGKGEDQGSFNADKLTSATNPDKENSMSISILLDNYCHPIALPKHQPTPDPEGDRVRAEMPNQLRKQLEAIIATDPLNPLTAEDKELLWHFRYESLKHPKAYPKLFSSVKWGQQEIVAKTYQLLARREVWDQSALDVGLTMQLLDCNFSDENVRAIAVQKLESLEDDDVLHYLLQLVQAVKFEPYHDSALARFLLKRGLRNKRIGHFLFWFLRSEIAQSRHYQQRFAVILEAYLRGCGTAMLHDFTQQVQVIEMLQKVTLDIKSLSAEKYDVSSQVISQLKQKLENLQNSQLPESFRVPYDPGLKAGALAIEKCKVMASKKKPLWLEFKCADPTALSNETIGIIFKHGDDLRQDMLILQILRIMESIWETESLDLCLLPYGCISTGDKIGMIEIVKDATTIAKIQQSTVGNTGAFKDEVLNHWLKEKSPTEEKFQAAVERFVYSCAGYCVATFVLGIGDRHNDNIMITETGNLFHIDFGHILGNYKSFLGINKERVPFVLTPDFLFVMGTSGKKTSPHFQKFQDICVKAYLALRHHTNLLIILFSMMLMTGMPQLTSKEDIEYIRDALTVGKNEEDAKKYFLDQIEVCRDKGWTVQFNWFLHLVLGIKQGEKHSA
Chain of p110α/p85α (P42336 whole entry): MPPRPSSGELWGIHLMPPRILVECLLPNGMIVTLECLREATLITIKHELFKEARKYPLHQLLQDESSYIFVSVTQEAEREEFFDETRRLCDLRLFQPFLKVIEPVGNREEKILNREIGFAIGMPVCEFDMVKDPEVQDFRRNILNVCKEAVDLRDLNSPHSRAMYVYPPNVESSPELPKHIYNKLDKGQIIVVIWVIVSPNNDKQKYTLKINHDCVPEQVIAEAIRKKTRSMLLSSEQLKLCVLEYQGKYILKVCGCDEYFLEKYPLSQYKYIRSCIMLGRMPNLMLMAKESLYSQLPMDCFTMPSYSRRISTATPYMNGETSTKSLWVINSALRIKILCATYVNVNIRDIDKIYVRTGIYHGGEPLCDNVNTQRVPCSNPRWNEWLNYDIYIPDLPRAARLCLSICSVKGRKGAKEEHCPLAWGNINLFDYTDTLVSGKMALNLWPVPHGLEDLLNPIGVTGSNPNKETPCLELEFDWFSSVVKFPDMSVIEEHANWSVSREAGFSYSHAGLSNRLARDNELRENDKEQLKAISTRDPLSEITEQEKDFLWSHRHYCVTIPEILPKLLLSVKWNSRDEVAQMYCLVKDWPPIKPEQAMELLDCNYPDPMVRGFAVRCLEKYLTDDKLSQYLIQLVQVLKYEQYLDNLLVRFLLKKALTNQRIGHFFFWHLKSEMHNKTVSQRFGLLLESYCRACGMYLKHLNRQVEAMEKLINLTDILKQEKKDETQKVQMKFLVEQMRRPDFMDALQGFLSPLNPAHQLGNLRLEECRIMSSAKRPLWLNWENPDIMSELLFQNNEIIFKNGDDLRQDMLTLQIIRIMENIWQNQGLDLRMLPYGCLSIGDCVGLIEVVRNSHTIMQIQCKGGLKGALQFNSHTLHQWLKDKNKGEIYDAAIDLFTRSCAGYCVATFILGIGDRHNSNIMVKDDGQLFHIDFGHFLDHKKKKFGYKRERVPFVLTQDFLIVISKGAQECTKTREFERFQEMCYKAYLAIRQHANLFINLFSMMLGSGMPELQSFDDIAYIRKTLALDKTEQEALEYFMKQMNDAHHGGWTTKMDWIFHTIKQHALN
Chain of p110α/p85α (P27986 whole entry partner): as the sequence (P27986 whole entry partner) above

SMILES	IC50 [1, 7]	IC50 [2, 8]	IC50 [3, 9]	IC50 [4]	IC50 [5, 10]	IC50 [6, 11]	IC50 ([1]; read-out: PI3K γ In Vitro IC50)	IC50 [6, 12]	IC50 ([2]; read-out: PI3K α In Vitro IC50)	IC50 ([3]; read-out: PI3K δ In Vitro IC50)	IC50 ([5]; read-out: PI3K β In Vitro IC50)
Nc1nc2cc(-c3ccc4ncc(N5CCC(n6ccnc6)CC5)nc4c3)ccc2o1 [compound 345]	< 1 µM	< 0.1 µM	< 1 µM	< 10 µM	< 1 µM						
C[C@@H]1CN(C2CN(c3cnc4ccc(-c5ccc6oc(N)nc6c5)cc4n3)C2)CCN1 [compound 355]	< 10 µM	< 0.1 µM	< 1 µM		< 10 µM	< 1 µM					
Nc1nc2cc(-c3ccn4ncc(-c5ccncc5)c4c3)ccc2o1 [compound 356]	< 0.1 µM	< 0.1 µM	< 0.1 µM		< 0.1 µM	< 1 µM					
CN1CCN([C@@H]2CCN(c3cnc4ccc(-c5ccc6oc(N)nc6c5)cc4n3)C2)CC1 [compound 379]		< 0.1 µM	< 10 µM	< 10 µM	< 1 µM						
O=C(c1cnc2ccc(-c3cnc(Cl)c(NS(=O)(=O)c4ccccc4)c3)cn12)N1CCOCC1 [compound 451]							< 0.1 µM	< 1 µM	< 0.1 µM	< 0.1 µM	< 1 µM
O=C(c1cnc2ccc(-c3cnc(Cl)c(NS(=O)(=O)c4ccccc4F)c3)cn12)N1CCOCC1 [compound 452]							< 0.1 µM	< 10 µM	< 0.1 µM	< 0.1 µM	< 1 µM
O=C(c1cnc2ccc(-c3cnc(Cl)c(NS(=O)(=O)c4ccc(F)cc4)c3)cn12)N1CCOCC1 [compound 457]							< 0.1 µM	< 1 µM	< 0.1 µM	< 0.1 µM	< 0.1 µM
O=C(c1cnc2ccc(-c3cnc(Cl)c(NS(=O)(=O)c4cccc(F)c4)c3)cn12)N1CCOCC1 [compound 458]							< 0.1 µM	< 1 µM	< 0.1 µM	< 0.1 µM	< 0.1 µM
COc1ccc(-c2ccc3ncc(C(=O)N4CCOCC4)n3c2)cc1NS(=O)(=O)c1cccnc1 [compound 462]							< 0.1 µM	< 1 µM	< 0.1 µM	< 0.1 µM	< 0.1 µM
COC1CN(C(=O)c2cnc3ccc(-c4ccc5oc(N)nc5c4)cn23)C1 [compound 467]							< 0.1 µM	< 1 µM	< 0.1 µM	< 10 µM	< 10 µM
Nc1nc2cc(-c3ccc4ncc(C(=O)N5CC(N6CC[C@H](O)C6)C5)n4c3)ccc2o1 [compound 469]							< 1 µM	< 10 µM	< 0.1 µM	< 10 µM	< 10 µM
Nc1nc2cc(-c3ccc4ncc(C(=O)N5CC(N6CC[C@@H](O)C6)C5)n4c3)ccc2o1 [compound 470]							< 1 µM	< 10 µM	< 0.1 µM	< 10 µM	< 10 µM
CN(C(=O)c1cnc2ccc(-c3ccc4oc(N)nc4c3)cn12)C1CCOCC1 [compound 472]							< 1 µM	< 10 µM	< 0.1 µM	< 10 µM	< 10 µM
Nc1nc2cc(-c3ccc4ncc(C(=O)N5CC[C@H](n6cccn6)C5)n4c3)ccc2o1 [compound 478]							< 1 µM	< 1 µM	< 0.1 µM	< 1 µM	< 10 µM
C[C@@H]1CN(C2CN(C(=O)c3cnc4ccc(-c5ccc6oc(N)nc6c5)cn34)C2)CCN1C [compound 508]							< 10 µM	< 1 µM	< 0.1 µM	< 1 µM	< 10 µM
C[C@H]1CN(C2CN(C(=O)c3cnc4ccc(-c5ccc6oc(N)nc6c5)cn34)C2)CCN1 [compound 510]							< 10 µM	< 10 µM	< 0.1 µM	< 1 µM	< 10 µM
C[C@@H]1CN(C2CN(C(=O)c3cnc4ccc(-c5ccc6oc(N)nc6c5)cn34)C2)CCN1 [compound 511]							< 10 µM	< 10 µM	< 0.1 µM	< 1 µM	< 10 µM
C[C@H]1CN(C2CN(C(=O)c3cnc4ccc(-c5ccc6oc(N)nc6c5)cn34)C2)CCN1C [compound 512]							< 10 µM	< 1 µM	< 0.1 µM	< 1 µM	< 10 µM
CC1(C)CN(C2CN(C(=O)c3cnc4ccc(-c5ccc6oc(N)nc6c5)cn34)C2)CCN1 [compound 515]							< 1 µM	< 1 µM	< 0.1 µM	< 0.1 µM	< 10 µM
COc1ncc(-c2ccc3ncn(C4CCN(C(C)C)CC4)c(=O)c3c2)cc1NS(=O)(=O)c1ccccc1 [compound 522]							< 0.1 µM	< 1 µM	< 0.1 µM	< 0.1 µM	< 0.1 µM
CC(C)N1CCC(n2cnc3ccc(-c4cnc(Cl)c(NS(C)(=O)=O)c4)cc3c2=O)CC1 [compound 523]							< 0.1 µM	< 10 µM	< 0.1 µM	< 0.1 µM	< 1 µM
COc1ncc(-c2ccc3ncn(C4CCN(C)CC4)c(=O)c3c2)cc1NS(=O)(=O)c1ccccc1 [compound 524]							< 1 µM	< 1 µM	< 0.1 µM	< 0.1 µM	< 0.1 µM

Reference: patent publication US11547697B2, “Heterocyclic compounds and uses thereof” (MILLENNIUM PHARMACEUTICALS, INC., priority 2009, dated 2023)
